Experimental data from patent US20250346550A1, “METHODS OF MODULATING ENDONUCLEASE G USING RESVERATROL AND ITS DERIVATIVES” (THE REGENTS OF THE UNIVERSITY OF COLORADO A BODY CORPORATE, priority 2022, published 2025).
Entries after “also recorded” stand apart in the source; their conditions may differ.

Experiments:
[1] = tested on: paternal mitochondrial elimination (PME) in C. elegans wild-type (N2) cross-fertilized embryos; test: PME fluorescent microscopy assay (MTR-stained paternal mitochondrial clusters), N2 males x N2 hermaphrodites; type: in vivo; conditions: for effect on PME when males were treated: 50 μM pretreatment of males before mating (FIG. 3a, b); for dynamics of PME at different embryonic stages: 50 μM vs 0.25% ethanol mock (FIG. 1g, FIG. 12); for effect on PME: 64-cell embryos (FIG. 1b, d); for effect on PME of the UV-irradiated solution: compound irradiated with UV for 4 hours, 64-cell embryos (FIG. 1e, f); for concentration sufficient to significantly affect PME / concentration showing maximal PME activity: dose series (FIG. 7a, b); for concentration sufficient to significantly affect PME: cis: inhibition, 64-cell, trans: enhancement, 16-cell; for concentration showing maximal PME activity: cis: inhibitory, trans: enhancing
Experimental: FIG. 1. […] The numbers of MTR-stained paternal mitochondrial clusters in 64-cell cross-fertilized embryos from mating of MTR-stained N2 males with N2 hermaphrodites in the presence of the indicated compounds (100 μM) were scored. n≥15 embryos for each compound. b, d-g, Quantification of MTR-stained paternal mitochondrial clusters in 64-cell stage embryos (b, d-f) or in embryos at the indicated stage (g) from the cross between MTR-stained N2 males and N2 hermaphrodites, in the presence of 0.25% ethanol (Mock) or 50 μM of the indicated compound. In each experiment, n>40 embryos (b,d,e), n=20 embryos (f), and n≥10 embryos (g) were scored, respectively. […] Data are mean±s.e.m. **P<0.01, ***P<0.001; n.s., not significant, two-sided, unpaired t-test.
FIG. 7. Effects of different dosages of resveratrol isomers on PME. a, b, The effects of different dosages of cis-resveratrol (a) and trans-resveratrol (b) on PME. The numbers of MTR-stained paternal mitochondrial clusters in 64-cell embryos (a) or 16-cell embryos (b) from mating of MTR-stained N2 males with N2 hermaphrodites in the presence of the indicated concentrations of resveratrol isomers were scored. […] N2 hermaphrodites and MTR-stained uaDf5/+ males were mated as indicated in the presence of 0.25% ethanol (Mock, d), 50 μM trans-resveratrol (e), or 50 μM cis-resveratrol (f). Males also carried smIs42, an integrated Psur-5sur-5::gfp transgene, which directs GFP expression in all somatic cells in most developmental stages, and was used to track cross progeny. A single cross-fertilized embryo or larva (MTR- or GFP-positive) at the indicated stage was analyzed by PCR. uaDf5/+ and N2 hermaphrodites were controls.
FIG. 12. […] Quantification of MTR-stained paternal mitochondrial clusters at the indicated embryonic stages from the cross between MTR-stained N2 males and N2 hermaphrodites, in the presence of 0.25% ethanol (Mock) or 50 μM of the indicated compound. In each experiment, n≥10 embryos embryos. Data are mean±s.e.m. **P<0.01, ***P<0.001; n.s., not significant, two-sided, unpaired t-test.
Following fertilization, paternal mitochondria are rapidly depolarized and damaged in fertilized eggs, which could generate and release reactive oxygen species (ROS) that affect PME and embryo development. We thus screened twelve small molecules derived from natural products that have been used as antioxidants for the potential activity in modulating PME (FIG. 6a), using a fluorescent microscopy assay. In this assay, C. elegans wild-type (N2) males prestained with Mitotracker Red (MTR), a mitochondrion-specific fluorescent dye, were mated with unstained N2 hermaphrodites in the presence of the compound of interest ([…]) and the cross-fertilized embryos were examined for the presence of MTR-stained paternal mitochondria or mitochondrial clusters.

[2] = tested on: PME defect of cps-6(tm3222) embryos; test: PME microscopy assay in cps-6(tm3222) crosses; type: in vivo, C. elegans; conditions: 50 μM, 64-cell embryos (FIG. 3e-g)
From the text: The numbers of MTR-stained paternal mitochondrial clusters were scored as in FIG. 1a. cps-6(tm3222) and lgg-1(bp523) alleles were used in the assays. Data are mean±s.e.m. n=20 embryos (b) and 15 embryos (c) in each experiment. **P<0.01; ***P<0.001; n.s., not significant, two-sided, unpaired t-test.
To investigate how these six compounds might affect PME, the present inventors performed chemical genetic analysis to analyze the PME pathways that might be affected by the compounds. The present inventors first examined whether they might affect the paternal PME pathway mediated by the mitochondrial endonuclease CPS-6, whose activity is inhibited by oxidation and protected by reducing agents.

CPS-6 = molecular target: T1, CPS-6 (Caenorhabditis elegans, UniProt Q95NM6); test: plasmid DNA cleavage assay; type: biochemical, C. elegans; conditions: 20 μM; for effect on CPS-6 nuclease activity: 10 ng CPS-6, pPD49.78 plasmid DNA
T1 construct: Recombinant CPS-6 protein was incubated with the supercoiled plasmid DNA substrate
T1 sequence (Q95NM6 1-308): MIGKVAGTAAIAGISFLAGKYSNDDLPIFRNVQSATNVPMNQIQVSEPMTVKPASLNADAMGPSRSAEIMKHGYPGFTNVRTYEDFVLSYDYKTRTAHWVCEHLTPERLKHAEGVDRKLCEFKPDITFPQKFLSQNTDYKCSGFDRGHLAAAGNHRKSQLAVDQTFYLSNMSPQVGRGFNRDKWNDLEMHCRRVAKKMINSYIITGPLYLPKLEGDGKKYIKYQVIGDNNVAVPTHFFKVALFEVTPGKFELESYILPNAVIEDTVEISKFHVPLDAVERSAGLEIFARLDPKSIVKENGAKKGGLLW
Experimental: FIG. 3. Resveratrol isomers target CPS-6 to affect PME. a, b, Both cis-resveratrol and trans-resveratrol act paternally to affect PME. The numbers of MTR-stained paternal mitochondrial clusters in embryos at 64-cell (a) or 16-cell (b) stage from the indicated crosses were scored. N2 males or hermaphrodites were pretreated with 0.25% ethanol (Mock), 50 μM cis-resveratrol (a), or 50 μM trans-resveratrol (b) as indicated before mating. c-g, Quantification of MTR-stained paternal mitochondrial clusters in 64-cell embryos from the indicated crosses treated with 0.25% ethanol (Mock), 50 μM cis-resveratrol, and 50 μM trans-resveratrol, respectively. Alleles used are lgg-1(bp523), cps-6(tm3222) and rad-23(tm2595). Data are mean s.e.m; n≥15 embryos (a) and n≥20 embryos (b, c-g) were scored in each experiment. ***P<0.001; n.s., not significant, two-sided, unpaired t-test. h, Resveratrol isomers enhance or inhibit the nuclease activity of CPS-6 in a plasmid DNA cleavage assay. 10 ng of CPS-6 were incubated with 0.25% ethanol (Mock), 20 μM cis-resveratrol, or 20 μM trans-resveratrol in dark at 4° C. for 1.5 hours, before 1 μg of the pPD49.78 plasmid DNA were added to the reactions. After further incubation at 30° C. for 1 hour, the reactions were resolved on a 1% agarose gel. Three different forms of plasmid DNA are indicated.
FIG. 11. Stabilized trans-resveratrol enhances the nuclease activity of CPS-6 in a plasmid DNA cleavage assay and is resistant to UV irradiation. 10 ng of CPS-6 were incubated with 0.25% ethanol (Mock), 20 μM locked trans-resveratrol with or without UV irradiation, 20 μM trans-resveratrol with or without UV irradiation, and 20 μM cis-resveratrol with or without UV irradiation, respectively, in dark at 4° C. for 1.5 hours, before 1 μg of the pPD49.78 plasmid DNA were added to the reactions. After further incubation at 30° C. for 1 hour, the reactions were resolved on a 1% agarose gel. Three different forms of plasmid DNA are indicated. Resveratrol isomers or derivative were subjected to UV irradiation for 3 hours.
Because resveratrol is an antioxidant and the endonuclease activity of CPS-6 is regulated by redox conditions both in vitro and in vivo, we investigated the possibility that resveratrol isomers could directly affect the nuclease activity of CPS-6 using a plasmid DNA cleavage assay. Recombinant CPS-6 protein was incubated with the supercoiled plasmid DNA substrate in the presence or absence of 20 μM trans-resveratrol or cis-resveratrol and the reactions were resolved by an agarose gel. […] Since the nuclease activity of CPS-6 is required for PME, these in vitro results are consistent with the in vivo observations that trans-resveratrol enhances and cis-resveratrol inhibits PME.

SMILES	effect on PME when males were treated [1]	dynamics of PME at different embryonic stages [1]	effect on PME ([1]; 50 μM)	effect on PME of the UV-irradiated solution ([1]; 50 μM)	concentration sufficient to significantly affect PME [1] [µM]	concentration showing maximal PME activity [1] [µM]	effect on PME defect in cps-6(tm3222) mutant and cps-6; lgg-1 and cps-6; rad-23 double mutants [2]	effect on CPS-6 nuclease activity (CPS-6)	effect on CPS-6 nuclease activity after UV irradiation of the compound (CPS-6; compound UV irradiated for 3 hours (FIG. 11))	effect on PME when only hermaphrodites were treated ([1]; 50 μM, males mock treated (FIG. 3a))	average paternal mitochondrial clusters in 64-cell embryos ([1]; freshly prepared, 50 μM (FIG. 1d)) [clusters]
Oc1ccc(/C=C/c2cc(O)cc(O)c2)cc1 [trans-resveratrol, 3,5,4′-trihydroxy-trans-stilbene]	only acted through males to enhance PME	accelerated elimination of paternal mitochondria; also recorded: identical activity in promoting PME	did not inhibit PME	acquired the activity to inhibit PME	25	50	neither cis-resveratrol nor trans-resveratrol could enhance or suppress the PME defect	enhances the endonuclease activity of CPS-6	lost its activity to enhance the nuclease activity of CPS-6	–	–
Oc1ccc(/C=C\c2cc(O)cc(O)c2)cc1 [cis-resveratrol]	PME was suppressed	blocked rapid elimination of paternal mitochondria	inhibited PME better than the aged trans-resveratrol	reduced PME inhibitory activity	1	50	neither cis-resveratrol nor trans-resveratrol could enhance or suppress the PME defect	inhibits CPS-6 nuclease activity	–	PME proceeded normally	16
